Results: patent EP0514133A1, “Benzodiazepine derivatives, compositions containing them and their use in therapy” (priority 1991, dated 1992)
Where two headings read alike, the source gives them in different places.

Tests used:
CCK receptor (pancreas) = target: T1, CCK receptor (pancreas) (Rattus norvegicus, UniProt P30551); test: biochemical; format: binding; settings: rat pancreas membranes; for IC50: 50 pM 125I-CCK-8, 25°C 2 hours
T1 construct: The whole pancreas was dissected free of fat tissue and was homogenized; from tissue; host or cells: rat pancreas membrane homogenate
T1 sequence (P30551 1-444): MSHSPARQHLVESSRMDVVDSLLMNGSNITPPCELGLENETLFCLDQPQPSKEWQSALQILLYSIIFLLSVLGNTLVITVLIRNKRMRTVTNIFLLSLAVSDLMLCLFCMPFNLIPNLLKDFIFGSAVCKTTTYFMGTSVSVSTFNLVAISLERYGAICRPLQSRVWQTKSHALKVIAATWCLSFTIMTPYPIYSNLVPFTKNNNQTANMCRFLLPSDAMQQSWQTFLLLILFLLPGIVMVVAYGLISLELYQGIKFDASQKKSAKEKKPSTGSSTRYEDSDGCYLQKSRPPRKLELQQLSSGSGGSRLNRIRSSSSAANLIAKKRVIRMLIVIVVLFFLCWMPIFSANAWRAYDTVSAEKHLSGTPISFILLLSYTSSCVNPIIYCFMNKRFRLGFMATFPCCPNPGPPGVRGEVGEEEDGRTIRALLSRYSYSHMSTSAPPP
Protocol: CCK-8 sulphated was radiolabelled with ¹²⁵I-Bolton Hunter reagent (2000 Ci/mmole). Receptor binding was performed according to Chang and Lotti (Proc. Natl. Acad. Sci. 83, 4923-4926, 1986) with minor modifications.
Male Sprague-Dawley rats (150-200g) were sacrificed by decapitation. The whole pancreas was dissected free of fat tissue and was homogenized in 25 volumes of ice-cold 10 mM N-2-hydroxyethyl-piperazine-N′-2-ethane sulphonic acid (HEPES) buffer with 0.1% soya bean trypsin inhibitor (pH 7.4 at 25°C) with a Kinematica Polytron. The homogenates were centrifuged at 47,800 g for 10 min. Pellets were resuspended in 10 volumes of binding assay buffer (20mM (HEPES)), 1mM ethylene glycol-bis-(β-aminoethylether-N,N′-tetraacetic acid) (EGTA), 5mM MgCl₂, 150 mM NaCl, bacitracin 0.25 mg/ml, soya bean trypsin inhibitor 0.1 mg/ml, and bovine serum albumin 2 mg/ml pH 6.5 at 25°C) using a Teflon (trademark) homogenizer, 15 strokes at 500 rpm. The homogenate was further diluted in binding assay buffer to give a final concentration of 0.5 mg original wet weight/1 ml buffer. […] All assays were run in duplicate. The reaction mixtures were incubated at 25°C for 2 hours and the reaction terminated by rapid filtration (Brandell 24 well cell harvester) over Whatman GF/C filters, washing 3 x 4 mls with ice-cold 100 Mm NaCl. The radioactivity on the filters was counted with a LKB gamma counter.
(§1) Drug displacement studies were performed with at least 10 concentrations of compounds of Formula I and the IC₅₀ values were determined by regression analysis IC₅₀ refers to the concentration of the compound required to inhibit 50% of specific binding of ¹²⁵I-CCK-8.

[1] = target: T2, CCK receptor (brain, cortex) (Cavia porcellus, UniProt H0VZC5); test: biochemical; format: binding, guinea pig
T2 construct: the cortex was removed and homogenized in 25 mL ice-cold 0.32 M sucrose; from tissue; host or cells: guinea pig brain cortex P2 membrane pellet
T2 sequence (H0VZC5 1-426): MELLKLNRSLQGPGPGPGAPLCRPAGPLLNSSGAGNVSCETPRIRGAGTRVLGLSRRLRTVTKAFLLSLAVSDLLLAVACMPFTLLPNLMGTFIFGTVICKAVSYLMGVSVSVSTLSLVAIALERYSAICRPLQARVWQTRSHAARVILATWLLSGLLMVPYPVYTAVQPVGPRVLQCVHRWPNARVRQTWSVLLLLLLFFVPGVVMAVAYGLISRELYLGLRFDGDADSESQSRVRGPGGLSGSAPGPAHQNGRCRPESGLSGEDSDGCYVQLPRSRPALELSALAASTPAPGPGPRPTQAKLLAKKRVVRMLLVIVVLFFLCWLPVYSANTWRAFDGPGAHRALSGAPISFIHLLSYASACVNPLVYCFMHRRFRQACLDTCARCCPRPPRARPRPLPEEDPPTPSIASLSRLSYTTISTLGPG
Protocol: CCK-8 sulphated was radiolabelled and the binding was performed according to the description for the pancreas method with minor modifications.
Male Hartley guinea pigs (300-500g) were sacrificed by decapitation and the cortex was removed and homogenized in 25 mL ice-cold 0.32 M sucrose. The homogenates were centrifuged at 1000 g for 10 minutes and the resulting supernatant was recentrifuged at 20,000 g for 20 minutes. The P₂ pellet was resuspended in binding assay buffer (20mM HEPES, 5 mM MgCl₂, 0.25 mg/ml bacitracin, 1 mM EGTA pH 6.5 at 25°C), using a Teflon (trademark) homogenizer (5 strokes at 500 rpm) to give a final concentration of 10 mg original wet weight/1.2 ml buffer. […] All assays were run in duplicate. The reaction mixtures were incubated at 25°C for 2 hours and then the reaction was terminated by rapid filtration (Brandell 24 well cell harvester) on Whatman GF/C filters with 3 x 5 ml washes of cold 100 mM NaCl. The radioactivity on the filters was counted with a LKB gamma counter.
as §1

Gastrin Receptor = target: T3, Gastrin Receptor (Cavia porcellus, UniProt H0VZC5); test: Gastrin Receptor Binding in Guinea Pig Gastric Glands, 125I-gastrin; design: from tissue; host or cells: isolated guinea pig gastric mucosal glands; settings: 0.1 nM 125I-gastrin, 25°C 30 minutes
T3 sequence (H0VZC5 1-426): T2 sequence (H0VZC5 1-426)
Protocol: Gastrin antagonist activity of compounds of Formula I was determined using the following assay.
Guinea pig gastric mucosal glands were prepared by the procedure of Chang et. al., Science, 230, 177-179 (1985) with slight modifications. […] The tissues were passed twice through a 5 ml syringe to liberate the gastric glands, and then filtered through Nitex (trademark) #202 gauge nylon mesh. The filtered glands were centrifuged at 272 g for 5 minutes and washed twice by resuspension in 25 ml buffer and centrifugation.
The washed guinea pig gastric glands prepared as above were resuspended in 25 ml of standard buffer. For binding studies, to 250 µl of gastric glands, 30 µl of buffer (for total binding) or gastrin (3 µM final concentration, for nonspecific binding) or test compound and 20 µl of ¹²⁵I-gastrin (NEN, 2200 Ci/mmole, 0.1 nM final concentration) were added. All assays were run in triplicate. […] The reaction mixtures, after incubation at 25°C for 30 minutes in a shaking water bath were rapidly filtered (Brandell 24 well cell harvester) over Whatman G/F B filters presoaked in assay buffer and immediately washed further with 3 x 4 ml of 100 mM ice cold NaCl. The radioactivity on the filters was measured using a LKB gamma counter.

[2] = guinea pig cortex membranes, 50 pM 125I-CCK-8, 25°C 2 hours, read-out: IC50 ^125I-CCK Brain

Compound | IC50 (CCK receptor (pancreas)) [nM] | IC50 [1, 2] [nM] | IC50 (Gastrin Receptor) [nM] | IC50 [1] [nM] | inhibition at 3 µM (CCK receptor (pancreas); at 3μM, read-out: inhibition of ^125I-CCK binding, Pancreas) [%]
CN1C(=O)C(NC(=O)Nc2cccc(S(=O)(=O)NC(=O)C(F)(F)F)c2)N=C(C2CCCCC2)c2ccccc21 (racemic) [Example 17, N-[3(R,S)-5-Cyclohexyl-2,3-dihydro-1-methyl-2-oxo-1H-1,4-benzodiazepin-3-yl] N′-[3-(trifluoromethylcarbonylaminosulphonyl)phenyl] urea] | 137 | 0.9 | 10.5 |  | 
CC(=O)NS(=O)(=O)c1cccc(NC(=O)NC2N=C(C3CCCCC3)c3ccccc3N(C)C2=O)c1 (racemic) [Example 15, N-[3(R,S)-5-Cyclohexyl-2,3-dihydro-1-methyl-2-oxo-1H-1,4-benzodiazepin-3-yl] N′-[3-(methylcarbonylaminosulphonyl)phenyl] urea] | 19.8 |  | 1.06 | 0.4 | 
CN1C(=O)[C@H](NC(=O)Nc2cccc(C(=O)NS(=O)(=O)c3ccccc3)c2)N=C(C2CCCCC2)c2ccccc21 [Example 27, (-)-N-[3(R)-5-Cyclohexyl-2,3-dihydro-1-methyl-2-oxo-1H-1,4-benzodiazepin-3-yl] N′-[3-(phenylsulphonylaminocarbonyl)phenyl]urea] |  |  | 1.34 | 0.38 | 19
CCN1C(=O)C(NC(=O)Nc2cccc(S(=O)(=O)NC(C)=O)c2)N=C(C2CCCC2)c2ccccc21 (racemic) [Example 20, N-[3(R,S)-5-Cyclopentyl-2,3-dihydro-1-ethyl-2-oxo-1H-1,4-benzodiazepin-3-yl] N′-[3-(methylcarbonylaminosulphonyl)phenyl] urea] | 953 | 1.4 | 1.77 |  | 
N-(3(R,S)-5-Cyclopentyl-2,3-dihydro-1-methyl-2-oxo-1H-1,4-benzodiazepin-3-yl] N′-[3-(1,1-dimethylethylsulphonylaminocarbonyl)phenyl] urea [Example 39] | 270 | 0.56 | 1.18 |  | 
CN1C(=O)C(NC(=O)Nc2cccc(-c3nn[nH]n3)c2)N=C(C2CCCCC2)c2ccccc21 (racemic) [Example 4, N-[3(R,S)-5-Cyclohexyl-2,3-dihydro-1-methyl-2-oxo-1H-1,4-benzodiazepin-3-yl] N′-[3-tetrazol-5-ylphenyl]urea] | 11 | 0.09 | 0.44 |  | 
